Reference: PMC7725003, “Systematically Studying the Optimal Amino Acid Distribution Patterns of the Amphiphilic Structure by Using the Ultrashort Amphiphiles” (Frontiers in Microbiology, 2020)
Where no end group is shown, it is not given here.

Tested on: E. coli K88
In short: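 Peptides were serially diluted in 0.2% BSA and added to mid-logarithmic cells diluted in MHB to 0.5–1 × 10^6 CFU mL^–1. Assays followed an adapted NCCLS protocol.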

In the case of RLRLRLRLL-NH2 [L5], the MIC (MHB, 24 h 37°C, 95% growth inhibition) is reported as 2 µM and the MBC (value in brackets, >99.9% of cells killed) is reported as 4 µM.
